# Source: ChEMBL document CHEMBL1201862, “PubChem BioAssay data set” (2004)
#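 Where inhibition never reached the appropriate level, the endpoint shown equals the highest concentration tested. Otherwise, values were interpolated linearly from a five-concentration, 48-hour dose response in 96-well plates. GI50 = concentration required for 50% inhibition of growth.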 Active and inactive are the calls of the source. Cut-off read from the data, not from the text of the source: active = GI50 up to about 1.1 µM and inactive = higher.
# Columns and labels:
# Experiment in all cases: DTP human tumour cell line panel, 48 h
# HCC 2998 = system: HCC 2998
# SN12C = system: SN12C
# HL-60 = system: HL-60
# RPMI-8226 = system: RPMI-8226
# MDA-N = system: MDA-N
# SNB-75 = system: SNB-75
# NCI-H226 = system: NCI-H226
# SF-268 = system: SF-268
# SW-620 = system: SW-620
# PC-3 = system: PC-3
# NCI-H23 = system: NCI-H23
# HCT-15 = system: HCT-15
# MDA-MB-435 = system: MDA-MB-435
# K562 = system: K562
# DU-145 = system: DU-145
# HOP-62 = system: HOP-62
# EKVX = system: EKVX
# Malme-3M = system: Malme-3M
# SK-MEL-5 = system: SK-MEL-5
# RXF 393 = system: RXF 393
Compound,GI50 (HCC 2998),GI50 (SN12C),GI50 (HL-60),GI50 (RPMI-8226),GI50 (MDA-N),GI50 (SNB-75),GI50 (NCI-H226),GI50 (SF-268),GI50 (SW-620),GI50 (PC-3),GI50 (NCI-H23),GI50 (HCT-15),GI50 (MDA-MB-435),GI50 (K562),GI50 (DU-145),GI50 (HOP-62),GI50 (EKVX),GI50 (Malme-3M),GI50 (SK-MEL-5),GI50 (RXF 393)
COC(=O)[C@@H]1C=CCN1S(=O)(=O)c1ccc(C)cc1,70.6 µM (inactive),> 100 µM (inactive),24.2 µM (inactive),> 100 µM (inactive),29.2 µM (inactive),> 100 µM (inactive),> 100 µM (inactive),> 100 µM (inactive),> 100 µM (inactive),> 100 µM (inactive),> 100 µM (inactive),37.5 µM,13.2 µM (inactive),31.9 µM (inactive),> 100 µM (inactive),> 100 µM (inactive),> 100 µM (inactive),71.6 µM (inactive),59.6 µM (inactive),50.5 µM (inactive)
O=C(O)CCSCc1ccc(I)cc1,> 100 µM (inactive),> 100 µM (inactive),> 100 µM (inactive),> 100 µM (inactive),> 100 µM (inactive),72.4 µM (inactive),> 100 µM (inactive),> 100 µM (inactive),> 100 µM (inactive),> 100 µM (inactive),> 100 µM (inactive),> 100 µM,> 100 µM (inactive),> 100 µM (inactive),> 100 µM (inactive),> 100 µM (inactive),> 100 µM (inactive),> 100 µM (inactive),> 100 µM (inactive),96.4 µM (inactive)
CCOC(=O)NC(Nc1ncn(C(NC(=O)OCC)(C(F)(F)F)C(F)(F)F)n1)(C(F)(F)F)C(F)(F)F,29.9 µM (inactive),> 100 µM (inactive),> 100 µM (inactive),> 100 µM (inactive),> 100 µM (inactive),> 100 µM (inactive),> 100 µM (inactive),> 100 µM (inactive),> 100 µM (inactive),> 100 µM (inactive),> 100 µM (inactive),> 100 µM,> 100 µM (inactive),> 100 µM (inactive),> 100 µM (inactive),> 100 µM (inactive),> 100 µM (inactive),> 100 µM (inactive),> 100 µM (inactive),> 100 µM (inactive)
O=C1N/C(=N\N=C\c2ccccc2)C(c2ccccc2)O1 (configuration not stated),17.1 µM (inactive),71.1 µM (inactive),30.1 µM (inactive),34.4 µM (inactive),> 100 µM (inactive),< 0.01 µM (active),30.9 µM (inactive),52.2 µM (inactive),59.4 µM (inactive),61.8 µM (inactive),> 100 µM (inactive),19.8 µM,> 100 µM (inactive),35.8 µM (inactive),53 µM (inactive),65.6 µM (inactive),66.8 µM (inactive),> 100 µM (inactive),66.8 µM (inactive),80 µM (inactive)
C=C1C(=O)O[C@H]2C/C(C)=C/CC/C(C)=C/CC[C@@](C)(O)[C@@H](I)C[C@@H]12,12.5 µM (inactive),5.06 µM (inactive),2.58 µM (inactive),2.69 µM (inactive),3.33 µM (inactive),11 µM (inactive),3.42 µM (inactive),14 µM (inactive),4.25 µM (inactive),8.26 µM (inactive),0.0501 µM (active),6.04 µM,4.6 µM (inactive),2.94 µM (inactive),9.44 µM (inactive),16.4 µM (inactive),7.14 µM (inactive),4.49 µM (inactive),11.8 µM (inactive),3.84 µM (inactive)
CCOC(=O)C(Cl)(NC(=O)c1ccc(F)cc1)C(F)(F)F (configuration not stated),> 100 µM (inactive),> 100 µM (inactive),> 100 µM (inactive),> 100 µM (inactive),> 100 µM (inactive),77.3 µM (inactive),> 100 µM (inactive),> 100 µM (inactive),> 100 µM (inactive),> 100 µM (inactive),> 100 µM (inactive),> 100 µM,> 100 µM (inactive),> 100 µM (inactive),> 100 µM (inactive),> 100 µM (inactive),> 100 µM (inactive),> 100 µM (inactive),> 100 µM (inactive),> 100 µM (inactive)
O=C1/C(=c2\s/c(=C\c3ccccc3)c(=O)n2-c2ccccc2)SC(=S)N1c1ccccc1,70.5 µM (inactive),35.6 µM (inactive),> 100 µM (inactive),56.8 µM (inactive),94.6 µM (inactive),19.4 µM (inactive),25.5 µM (inactive),41.8 µM (inactive),93.3 µM (inactive),55 µM (inactive),76.7 µM (inactive),> 100 µM,49.8 µM (inactive),47.2 µM (inactive),37.2 µM (inactive),,35.6 µM (inactive),28.7 µM (inactive),53.2 µM (inactive),34 µM (inactive)
CCCn1cnc2c(/N=N/O)ncnc21,> 100 µM (inactive),,> 100 µM (inactive),> 100 µM (inactive),> 100 µM (inactive),> 100 µM (inactive),> 100 µM (inactive),> 100 µM (inactive),> 100 µM (inactive),> 100 µM (inactive),> 100 µM (inactive),> 100 µM,> 100 µM (inactive),> 100 µM (inactive),> 100 µM (inactive),> 100 µM (inactive),> 100 µM (inactive),> 100 µM (inactive),> 100 µM (inactive),> 100 µM (inactive)
COc1cccc2c1C(=O)c1c(O)c3c(c(O)c1C2=O)C[C@@](O)(C(=O)CO)CC3OC1CC(N)C(OC2CCCCO2)C(C)O1 (some centres not stated),7.19 µM (inactive),1.27 µM (inactive),0.207 µM (active),0.33 µM (active),0.124 µM (active),0.417 µM (active),0.419 µM (active),0.785 µM (active),0.265 µM (active),0.0461 µM (active),0.478 µM (active),1.61 µM,0.0807 µM (active),0.646 µM (active),0.0031 µM (active),0.144 µM (active),1.39 µM (inactive),0.664 µM (active),0.299 µM (active),1.48 µM (inactive)
CN(C)CCNC(=O)c1cccc2nc3c4ccccc4c4ccccc4c3nc12,5.27 µM (inactive),1.92 µM (inactive),1.76 µM (inactive),1.56 µM (inactive),1.65 µM (inactive),2.52 µM (inactive),9.86 µM (inactive),0.569 µM (active),1.58 µM (inactive),1.65 µM (inactive),1.87 µM (inactive),1.69 µM,1.81 µM (inactive),1.52 µM (inactive),1.79 µM (inactive),16.2 µM (inactive),5.77 µM (inactive),1.8 µM (inactive),3.37 µM (inactive),2.06 µM (inactive)
O=C(c1ccccc1)C(Nc1ccc2ccccc2c1)c1ccccc1 (configuration not stated),20.7 µM (inactive),26.9 µM (inactive),13.1 µM (inactive),11.1 µM (inactive),7.05 µM (inactive),33.5 µM (inactive),> 60.7 µM (inactive),39.5 µM (inactive),27.7 µM (inactive),17.6 µM (inactive),24.4 µM (inactive),29 µM,4.85 µM (inactive),7.36 µM (inactive),42 µM (inactive),36.6 µM (inactive),17.6 µM (inactive),30.2 µM (inactive),16.9 µM (inactive),> 43.9 µM (inactive)
COc1cc(C2c3cc4c(cc3OC(NNC(N)=O)C2C)OCO4)cc(OC)c1O (configuration not stated),2.54 µM (inactive),4.9 µM (inactive),0.867 µM (active),1.64 µM (inactive),0.274 µM (active),0.805 µM (active),6.65 µM (inactive),8.26 µM (inactive),1.2 µM (inactive),1.67 µM (inactive),4.92 µM (inactive),13 µM,0.324 µM (active),0.433 µM (active),3.96 µM (inactive),5.48 µM (inactive),> 28.4 µM (inactive),0.615 µM (active),0.91 µM (active),0.598 µM (active)
O=C(O)C1C2c3ccccc3C(c3ccccc32)C1C(=O)NCC1CC1 (configuration not stated),13.5 µM (inactive),55.2 µM (inactive),24.8 µM (inactive),24.7 µM (inactive),48.2 µM (inactive),84.5 µM (inactive),60.4 µM (inactive),94.4 µM (inactive),50.2 µM (inactive),53.7 µM (inactive),47.9 µM (inactive),48.3 µM,51.2 µM (inactive),45.3 µM (inactive),81.1 µM (inactive),68.2 µM (inactive),71.9 µM (inactive),> 100 µM (inactive),66.8 µM (inactive),97.5 µM (inactive)
CC(C)(C)NC(NC(C)(C)C)=C(/C=C(/Cl)[N+](=O)[O-])[N+](=O)[O-],62.1 µM (inactive),> 100 µM (inactive),29.5 µM (inactive),67.3 µM (inactive),26.2 µM (inactive),0.0395 µM (active),> 100 µM (inactive),74.6 µM (inactive),,45.6 µM (inactive),42.7 µM (inactive),73.1 µM,19.5 µM (inactive),55.1 µM (inactive),> 100 µM (inactive),> 100 µM (inactive),> 100 µM (inactive),10.3 µM (inactive),44.9 µM (inactive),> 100 µM (inactive)
